Test results as given in BindingDB's records for doi:10.1124/jpet.103.052852 (Eli Lilly, 2003).

Experiments:
[1] = target: T1, Oxysterols receptor LXR-alpha (Homo sapiens, UniProt Q13133)
T1 sequence (Q13133 whole entry): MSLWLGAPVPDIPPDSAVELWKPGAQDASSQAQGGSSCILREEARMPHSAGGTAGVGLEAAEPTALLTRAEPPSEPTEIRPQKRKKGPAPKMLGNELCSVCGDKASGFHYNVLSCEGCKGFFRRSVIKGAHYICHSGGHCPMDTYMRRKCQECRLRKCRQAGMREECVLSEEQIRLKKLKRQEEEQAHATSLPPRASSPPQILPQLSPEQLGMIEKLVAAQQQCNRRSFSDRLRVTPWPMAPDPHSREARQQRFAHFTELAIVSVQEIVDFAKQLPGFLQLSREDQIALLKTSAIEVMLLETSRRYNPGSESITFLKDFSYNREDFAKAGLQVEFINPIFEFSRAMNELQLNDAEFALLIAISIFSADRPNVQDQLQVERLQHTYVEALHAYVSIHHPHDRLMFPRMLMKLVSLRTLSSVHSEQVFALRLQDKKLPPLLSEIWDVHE

[2] = target: T2, Oxysterols receptor LXR-beta (Homo sapiens, UniProt P55055)
T2 sequence (P55055 whole entry): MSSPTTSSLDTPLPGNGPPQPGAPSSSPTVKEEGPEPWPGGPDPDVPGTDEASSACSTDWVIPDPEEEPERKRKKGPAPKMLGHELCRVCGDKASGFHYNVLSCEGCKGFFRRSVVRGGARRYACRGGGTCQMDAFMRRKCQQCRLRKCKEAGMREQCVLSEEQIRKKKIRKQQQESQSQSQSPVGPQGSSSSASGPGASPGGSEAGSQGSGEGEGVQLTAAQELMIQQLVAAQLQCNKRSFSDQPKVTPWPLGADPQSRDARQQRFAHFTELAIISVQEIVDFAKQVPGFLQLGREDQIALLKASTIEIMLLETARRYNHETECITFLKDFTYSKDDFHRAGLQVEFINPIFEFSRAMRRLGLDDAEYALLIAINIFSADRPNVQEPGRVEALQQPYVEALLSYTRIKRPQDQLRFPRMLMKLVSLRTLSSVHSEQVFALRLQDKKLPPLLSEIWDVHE

SMILES | Ki [1] [nM] | Ki [2] [nM]
CC(C)CC[C@H](O)[C@@H](C)[C@H]1CC[C@H]2[C@@H]3CC=C4C[C@@H](O)CC[C@]4(C)[C@H]3CC[C@]12C [(1S,2R,5S,10S,11S,14R,15S)-14-[(2S,3S)-3-hydroxy-6-methylheptan-2-yl]-2,15-dimethyltetracyclo[8.7.0.0^{2,7}.0^{11,15}]heptadec-7-en-5-ol] | 250 | 490
CC(C)(O)C1OC2CCC3(C)C(O)(CCC4Cc5c([nH]c6ccccc56)C43C)C2=CC1=O (stereo not drawn) [CAS_57186-25-1] | – | 1100
